ChEMBL document CHEMBL1201862, “PubChem BioAssay data set” (2004)
Calls of active or inactive are those of the source.

Experiments:
Exodeoxyribonuclease V = target: T1, Exodeoxyribonuclease V (Escherichia coli (strain K12), UniProt P04993+P07648+P08394); assay: RecBCD inhibition via phage-restricted bacterial growth – absorbance, V66 E. coli, mutant T4 phage, counter-screen for AddAB inhibitor project, dose response (AID 492957); format: functional, cell-based, Escherichia coli str. K-12 substr. MG1655
T1 sequence (P04993 whole entry): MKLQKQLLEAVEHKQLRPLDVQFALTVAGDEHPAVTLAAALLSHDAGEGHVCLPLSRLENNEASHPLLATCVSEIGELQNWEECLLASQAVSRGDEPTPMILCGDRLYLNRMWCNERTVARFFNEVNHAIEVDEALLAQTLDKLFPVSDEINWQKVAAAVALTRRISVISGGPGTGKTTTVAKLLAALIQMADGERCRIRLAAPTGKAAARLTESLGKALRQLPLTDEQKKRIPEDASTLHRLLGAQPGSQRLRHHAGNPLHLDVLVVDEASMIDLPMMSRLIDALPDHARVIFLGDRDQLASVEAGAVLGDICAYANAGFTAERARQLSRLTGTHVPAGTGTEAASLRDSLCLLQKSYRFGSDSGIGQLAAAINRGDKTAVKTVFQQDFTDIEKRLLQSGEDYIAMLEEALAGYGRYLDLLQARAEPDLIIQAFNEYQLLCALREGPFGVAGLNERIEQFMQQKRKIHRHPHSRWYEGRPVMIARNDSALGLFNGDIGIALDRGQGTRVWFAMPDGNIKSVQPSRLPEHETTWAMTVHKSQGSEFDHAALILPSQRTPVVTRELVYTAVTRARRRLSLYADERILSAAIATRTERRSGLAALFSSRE
T1 sequence (P07648 whole entry): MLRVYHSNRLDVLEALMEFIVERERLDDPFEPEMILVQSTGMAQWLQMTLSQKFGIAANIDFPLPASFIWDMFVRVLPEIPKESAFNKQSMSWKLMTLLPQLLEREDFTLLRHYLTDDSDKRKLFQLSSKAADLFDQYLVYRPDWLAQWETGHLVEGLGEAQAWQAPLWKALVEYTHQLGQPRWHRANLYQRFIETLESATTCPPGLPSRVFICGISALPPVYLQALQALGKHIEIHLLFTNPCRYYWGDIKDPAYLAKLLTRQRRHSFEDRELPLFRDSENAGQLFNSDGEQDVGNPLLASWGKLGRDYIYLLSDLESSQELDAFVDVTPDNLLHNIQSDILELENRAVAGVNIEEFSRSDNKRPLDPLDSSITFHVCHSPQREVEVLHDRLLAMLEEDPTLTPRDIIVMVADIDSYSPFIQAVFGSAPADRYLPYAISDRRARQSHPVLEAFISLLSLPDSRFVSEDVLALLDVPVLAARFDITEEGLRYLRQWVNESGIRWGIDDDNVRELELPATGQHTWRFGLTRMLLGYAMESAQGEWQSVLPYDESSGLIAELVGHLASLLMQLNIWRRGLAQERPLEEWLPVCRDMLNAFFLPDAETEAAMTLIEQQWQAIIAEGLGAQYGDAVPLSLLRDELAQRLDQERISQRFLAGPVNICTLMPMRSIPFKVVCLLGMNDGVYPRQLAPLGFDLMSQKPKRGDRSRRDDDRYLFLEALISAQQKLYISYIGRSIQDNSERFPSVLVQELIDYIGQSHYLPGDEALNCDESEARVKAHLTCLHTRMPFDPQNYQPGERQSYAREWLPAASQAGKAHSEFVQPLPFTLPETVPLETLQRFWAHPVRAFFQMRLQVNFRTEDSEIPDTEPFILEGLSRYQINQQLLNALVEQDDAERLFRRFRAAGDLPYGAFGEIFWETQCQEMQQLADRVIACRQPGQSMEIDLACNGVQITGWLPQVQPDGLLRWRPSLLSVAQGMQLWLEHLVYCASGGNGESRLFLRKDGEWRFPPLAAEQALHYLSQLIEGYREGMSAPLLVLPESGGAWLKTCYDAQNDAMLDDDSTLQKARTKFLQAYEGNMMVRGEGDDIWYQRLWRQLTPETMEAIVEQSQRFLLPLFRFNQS
T1 sequence (P08394 whole entry): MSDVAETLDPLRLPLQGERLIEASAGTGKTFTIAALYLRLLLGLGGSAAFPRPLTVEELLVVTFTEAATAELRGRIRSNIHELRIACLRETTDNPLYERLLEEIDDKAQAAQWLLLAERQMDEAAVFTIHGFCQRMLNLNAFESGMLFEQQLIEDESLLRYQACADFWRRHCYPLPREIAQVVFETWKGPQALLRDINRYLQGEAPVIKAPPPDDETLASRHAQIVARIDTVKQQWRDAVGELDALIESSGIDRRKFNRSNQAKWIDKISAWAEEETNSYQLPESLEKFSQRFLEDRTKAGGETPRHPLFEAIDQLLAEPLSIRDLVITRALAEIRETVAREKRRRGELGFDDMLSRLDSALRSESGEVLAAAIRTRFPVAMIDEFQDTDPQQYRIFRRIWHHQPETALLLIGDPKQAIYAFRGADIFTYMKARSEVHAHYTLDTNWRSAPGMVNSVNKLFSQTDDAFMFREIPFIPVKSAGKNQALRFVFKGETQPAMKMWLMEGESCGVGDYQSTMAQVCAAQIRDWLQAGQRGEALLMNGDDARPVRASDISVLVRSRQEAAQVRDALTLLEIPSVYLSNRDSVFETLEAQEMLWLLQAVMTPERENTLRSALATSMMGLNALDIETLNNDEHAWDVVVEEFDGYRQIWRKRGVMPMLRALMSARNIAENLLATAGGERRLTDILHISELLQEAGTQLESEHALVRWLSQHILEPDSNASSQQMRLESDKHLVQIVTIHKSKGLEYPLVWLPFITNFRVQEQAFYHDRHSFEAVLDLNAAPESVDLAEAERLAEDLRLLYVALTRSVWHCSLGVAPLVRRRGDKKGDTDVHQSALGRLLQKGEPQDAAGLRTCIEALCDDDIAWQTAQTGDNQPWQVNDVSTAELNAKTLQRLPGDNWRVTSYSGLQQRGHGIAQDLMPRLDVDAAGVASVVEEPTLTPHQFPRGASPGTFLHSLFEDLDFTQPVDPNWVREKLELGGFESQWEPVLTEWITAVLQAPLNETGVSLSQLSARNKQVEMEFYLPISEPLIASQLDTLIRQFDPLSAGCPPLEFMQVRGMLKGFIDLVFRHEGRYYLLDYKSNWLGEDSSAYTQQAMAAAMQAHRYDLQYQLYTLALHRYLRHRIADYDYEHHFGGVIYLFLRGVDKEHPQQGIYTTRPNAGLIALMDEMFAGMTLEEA

[1] = target: Phosphorylase b kinase gamma catalytic chain, liver/testis isoform (Homo sapiens, UniProt P15735); format: functional;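 further: PHKG2 measured as one member of a kinome-wide kinase panel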
[2] = target: Serine/threonine-protein kinase PLK3 (Homo sapiens, UniProt Q9H4B4); format: functional
[3] = target: Protein kinase C gamma type (Homo sapiens, UniProt P05129); format: functional
[4] = target: Protein-tyrosine kinase 6 (Homo sapiens, UniProt Q13882); format: functional
Chain of Protein-tyrosine kinase 6 (Q13882 whole entry): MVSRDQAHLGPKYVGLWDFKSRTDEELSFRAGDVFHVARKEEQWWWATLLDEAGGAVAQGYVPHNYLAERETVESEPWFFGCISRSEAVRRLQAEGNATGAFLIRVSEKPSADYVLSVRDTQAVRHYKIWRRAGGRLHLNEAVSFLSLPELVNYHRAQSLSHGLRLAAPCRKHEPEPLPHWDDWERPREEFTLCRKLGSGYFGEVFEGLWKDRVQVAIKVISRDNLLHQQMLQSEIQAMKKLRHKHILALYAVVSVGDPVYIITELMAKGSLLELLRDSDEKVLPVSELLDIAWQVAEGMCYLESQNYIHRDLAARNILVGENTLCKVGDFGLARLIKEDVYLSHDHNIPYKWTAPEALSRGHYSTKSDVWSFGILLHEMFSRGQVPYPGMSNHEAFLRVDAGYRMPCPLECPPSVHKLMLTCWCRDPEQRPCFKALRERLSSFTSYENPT

Chain of Phosphorylase b kinase gamma catalytic chain, liver/testis isoform (P15735 whole entry, canonical isoform): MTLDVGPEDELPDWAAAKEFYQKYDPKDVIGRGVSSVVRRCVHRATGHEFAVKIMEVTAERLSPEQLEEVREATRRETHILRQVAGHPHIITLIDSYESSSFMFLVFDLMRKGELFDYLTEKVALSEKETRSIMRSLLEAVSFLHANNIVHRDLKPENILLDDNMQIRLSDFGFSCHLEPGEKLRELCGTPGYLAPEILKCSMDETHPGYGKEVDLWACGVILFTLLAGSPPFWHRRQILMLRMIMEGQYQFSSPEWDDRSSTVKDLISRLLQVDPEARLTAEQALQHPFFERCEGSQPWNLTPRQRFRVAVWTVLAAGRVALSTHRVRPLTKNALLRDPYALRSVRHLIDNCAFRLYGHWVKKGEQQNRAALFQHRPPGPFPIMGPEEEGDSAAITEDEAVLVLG
Chain of Serine/threonine-protein kinase PLK3 (Q9H4B4 whole entry): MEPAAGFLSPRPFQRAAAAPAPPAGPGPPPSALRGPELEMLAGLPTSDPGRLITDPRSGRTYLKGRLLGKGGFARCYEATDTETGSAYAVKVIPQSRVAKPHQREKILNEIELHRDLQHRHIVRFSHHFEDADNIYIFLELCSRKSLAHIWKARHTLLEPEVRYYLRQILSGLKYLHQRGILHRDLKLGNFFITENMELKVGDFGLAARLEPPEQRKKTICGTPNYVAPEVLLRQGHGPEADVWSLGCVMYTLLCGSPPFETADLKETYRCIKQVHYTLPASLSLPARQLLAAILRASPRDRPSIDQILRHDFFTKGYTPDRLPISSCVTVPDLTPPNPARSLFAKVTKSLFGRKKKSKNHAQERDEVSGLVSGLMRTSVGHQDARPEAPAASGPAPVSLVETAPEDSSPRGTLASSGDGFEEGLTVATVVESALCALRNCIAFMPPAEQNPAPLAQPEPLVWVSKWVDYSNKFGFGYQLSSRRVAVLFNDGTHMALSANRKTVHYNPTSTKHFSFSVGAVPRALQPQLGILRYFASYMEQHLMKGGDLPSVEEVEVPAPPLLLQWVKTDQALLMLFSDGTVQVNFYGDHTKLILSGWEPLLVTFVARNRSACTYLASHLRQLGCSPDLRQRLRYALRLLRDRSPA

Row | Ki [1] | Ki [2] | Ki [3] | Ki [4] | SMILES | IC50 (Exodeoxyribonuclease V)
1 | – | – | – | – | Cc1cc(NC(c2ccc(Cl)cc2)c2ccc3cccnc3c2O)no1 (stereo not given) | > 119000 nM (inactive)
2 | 2000 nM (active) | 15.8 nM (active) | 1260 nM (active) | 2000 nM (active) | CS(=O)(=O)N(Cc1ccc2[nH]c(=O)c3cccn3c2c1)C1CC1 | –
